Source: PubChem BioAssay (NCI)
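These data come from cells grown in 96-well plates and exposed to compound for 48 hours at five concentrations. Here, GI50 denotes the concentration required for 50% inhibition of growth. At the TGI there is no net growth.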 Where a SMILES comes first, the peptide text is derived from it. [ ]: non-standard residue; d: D form. Phe(4-Cl) = N[CH](Cc1ccc(Cl)cc1)C(=O)O

Legend:
Assay in all cases: inhibition of tumour cell growth, NCI panel, 48 h
[1] = test system: OVCAR-5 ovarian
[2] = test system: RPMI-8226 leukemia
[3] = test system: M14 melanoma
[4] = test system: OVCAR-4 ovarian
[5] = test system: SR leukemia
[6] = test system: MOLT-4 leukemia
[7] = test system: OVCAR-3 ovarian
[8] = test system: K-562 leukemia
[9] = test system: NCI-H522 lung
[10] = test system: NCI/ADR-RES ovarian

| SMILES | GI50 [1] [µM] | TGI [1] [µM] | GI50 [2] [µM] | TGI [2] [µM] | GI50 [3] [µM] | TGI [3] [µM] | GI50 [4] [µM] | TGI [4] [µM] | GI50 [5] [µM] | TGI [5] [µM] | GI50 [6] [µM] | TGI [6] [µM] | GI50 [7] [µM] | TGI [7] [µM] | GI50 [8] [µM] | TGI [8] [µM] | TGI [9] [µM] | GI50 [9] [µM] | GI50 [10] [µM] | TGI [10] [µM] |
| --- | --- | --- | --- | --- | --- | --- | --- | --- | --- | --- | --- | --- | --- | --- | --- | --- | --- | --- | --- | --- |
| N.N.N.N.N.O=C([O-])c1nn[n-]n1.[Cl-].[Co+3] | > 100 | > 100 | > 100 | > 100 | > 100 | > 100 | > 100 | > 100 | > 100 | > 100 | > 100 | > 100 | > 100 | > 100 | > 100 | > 100 |  |  |  |  |
| CC(C)(C)OC(=O)Cc1ccc2c(ccn2Cc2ccccc2)c1 |  | > 100 |  |  |  | > 100 |  | > 100 |  |  |  | > 100 |  | > 100 |  | > 100 | > 100 |  |  |  |
| COC(=O)C1=NC(=S)NC(c2ccccc2)C1c1nc2ccccc2s1 (stereo not drawn) |  |  |  |  |  | > 100 |  | > 100 |  | > 100 |  | > 100 |  | > 100 |  |  |  |  |  |  |
| O=C(CCl)Nc1ccc(Cl)cc1 | 3.57 | 12.9 | 3.14 | 9.45 | 4.45 | 17 | 5.68 | 25.3 |  |  |  |  | 1.88 | 3.62 |  |  | 3.01 | 1.48 | 2.8 | 8.96 |
| Cc1ccc(N(C(=O)CC(=O)NN)C(=O)c2ccccc2Cl)cc1 |  | > 100 |  | > 100 |  | > 100 |  | > 100 |  |  |  | > 100 |  | > 100 |  | > 100 | > 100 |  |  |  |
| CC(C)=CCC/C(=C/CC/C(C)=C/CCc1ccoc1)C(=O)O |  | > 100 |  |  |  | > 100 |  | > 100 |  |  |  | > 100 |  | > 100 |  | > 100 | > 100 |  |  |  |
| COc1ccc(C(=O)c2cc(C)c(OC)c(C)c2)c(OC)c1N(C(=O)C(Cl)Cl)C(=O)C(Cl)Cl | 0.111 | > 100 | 0.0794 | 20.8 | 0.0338 | > 100 | 1.59 | > 100 |  |  | 0.122 | > 100 | 0.0357 |  | 0.0487 | > 100 |  | 0.0322 | 0.032 |  |
| Cc1noc(C)c1CCCOC1COc2ccccc2OCCOCCOc2ccccc2OC1 |  | > 100 |  |  |  | > 100 |  | > 100 |  |  |  |  |  | > 100 |  | > 100 | > 100 |  |  |  |
| COC(=O)c1cc(Br)c(Br)n1C |  | > 100 |  |  |  | > 100 |  | > 100 |  | > 100 |  | > 100 |  | > 100 |  | > 100 | > 100 |  |  |  |
| CC(=O)[CH-]C(=O)c1ccccc1.CC(=O)[CH-]C(=O)c1ccccc1.O=C([O-])c1ccc([O-])cc1.O=C([O-])c1ccc([O-])cc1.[Ti+4] | 74.5 | > 100 | 20.7 | 62.8 | 40.2 | > 100 | 57.1 | > 100 |  |  | 23.8 | 79.3 | 33.4 | > 100 | 33.5 | > 100 | 70.9 | 22.8 |  |  |
| CCOC(=O)CN=c1nc(SC)sc2c(C(=O)OCC)nc(Sc3ccccc3)n12 |  | > 100 |  | > 100 |  | > 100 |  | > 100 |  | > 100 |  |  |  | > 100 |  | > 100 | 74.3 |  |  |  |
| CCOC1=NC(=O)CC(c2ccccc2)S1 (stereo not drawn) |  | > 100 |  | > 100 |  | > 100 |  | > 100 |  |  |  | > 100 |  | > 100 |  | > 100 |  |  |  |  |
| O=C(O)CP(=S)(S)c1ccccc1 (stereo not drawn) |  |  |  |  |  | > 100 |  | > 100 |  | > 100 |  | > 100 |  |  |  | > 100 | > 100 |  |  |  |
| Cc1cccc(NC(=O)C(=O)Cc2nc3ccccc3[nH]c2=O)c1C |  | > 100 |  |  |  | > 100 |  | > 100 |  | > 100 |  |  |  | > 100 |  | > 100 | > 100 |  |  |  |
| Cc1ccc(Nc2nc3c(s2)C(=O)c2ccccc2C3=O)c(C)c1 |  | 34.8 |  | 45.6 |  | 28.9 |  | 25 |  |  |  | 23.4 |  | 27.5 |  | 43 | 4.66 |  |  |  |
| CN(C)CCCn1c2c(c3ccccc3c1=O)C(=O)c1ccccc1-2 | 3.06 | 14 | 1.4 | 5.79 | 3.66 | 17.1 | 3.15 | 48.9 |  |  | 0.276 | 0.746 | 1.67 | 6.79 | 1.9 | 8.01 | > 100 | 3.62 | 1.85 | 7.13 |
| NCCCC[C@@H]1NC(=O)[C@H]2CCCN2C(=O)[C@H](Cc2ccccc2)NC(=O)[C@H](Cc2ccccc2)CNC1=O | > 100 | > 100 | > 100 | > 100 | > 100 | > 100 | > 100 | > 100 |  |  | > 100 | > 100 | > 100 | > 100 | > 100 | > 100 | > 100 | > 100 | > 100 | > 100 |
| Fc1cc(F)c(COc2cc(Cn3cnc4c(Cl)nc(Cl)nc43)ccc2C23CC4CC(CC(C4)C2)C3)cc1F | 19.9 | 37.4 |  |  |  |  | 19.5 | 44 |  |  |  |  | 15.6 | 30.2 |  |  | 5.56 | 2.29 | 18.3 | 37.1 |
| COc1ccc(C(=O)COc2cccc(/C=C3\COc4ccc5ccccc5c4C3=O)c2)cc1 | 12.9 | > 100 | 1.15 | 3.94 | 67.8 | > 100 | 6.53 | > 100 |  |  | 2.86 | 18.9 | 3.12 | 11.5 | 3.63 | 66.7 | > 100 | 8.13 | 6.14 | > 100 |
| CCC[CH2][Sn]1([CH2]CCC)[O]C(=O)C(C(C)C)N=Cc2ccccc2[O]1 (stereo not drawn) | 1.61 | 2.98 |  |  | 0.267 | 0.939 | 0.836 | 2.07 |  |  | 0.236 | 1.04 | 0.73 | 1.99 | 0.171 | 1.04 | 0.168 | 0.0442 |  |  |
| O=c1cccccc1NCCCNc1cccccc1=O |  | > 100 |  | > 100 |  | > 100 |  |  |  | > 100 |  | > 100 |  | > 100 |  | > 100 | > 100 |  |  |  |
| CC[O-].CC[O-].O=C1c2ccccc2C(=O)c2c(O)ccc([O-])c21.O=C1c2ccccc2C(=O)c2c(O)ccc([O-])c21.[Ti+4] |  | > 100 |  | > 100 |  | > 100 |  | > 100 |  |  |  | > 100 |  | > 100 |  | > 100 | > 100 |  |  |  |
| COc1c2c(cc3nc4ccccc4nc13)CCC(C(C)(C)O)C2 (stereo not drawn) |  | > 100 |  |  |  | > 100 |  | > 100 |  | > 100 |  | > 100 |  | > 100 |  | > 100 | > 100 |  |  |  |
| O=C(O)CN(c1ccccc1)S(=O)(=O)c1ccccc1[N+](=O)[O-] |  | > 100 |  | > 100 |  | > 100 |  | > 100 |  |  |  | > 100 |  | > 100 |  |  | > 100 |  |  |  |
| N#Cc1nc(C2OC(COC(=O)c3ccccc3)C(OC(=O)c3ccccc3)C2OC(=O)c2ccccc2)oc1N (stereo not drawn) |  | > 100 |  | 5.63 |  | > 100 |  | > 100 |  |  |  | > 100 |  | > 100 |  | > 100 | 65.2 |  |  |  |
| Clc1nc(Cl)c2ncn(Cc3cccc(COc4cccc(OCc5cccc(Cn6cnc7c(Cl)nc(Cl)nc76)c5)c4)c3)c2n1 | > 100 | > 100 | 2.61 | 54.8 | 26.1 | > 100 | 32 | > 100 |  |  | 4.73 | > 100 | 7.26 | 34.7 | 71.9 | > 100 | > 100 | 41.1 | 53.1 | > 100 |
| CC(O)C(NC(=O)C(Cc1ccccc1)NC(=O)C(NC(=O)C(CCCCN)NC(=O)C(Cc1c[nH]c2ccccc12)NC(=O)C(Cc1ccc(O)cc1)NC(=O)C(Cc1ccc(Cl)cc1)NC(=O)C(N)Cc1ccccc1)C(C)O)C(N)=O (stereo not drawn) (H-F[Phe(4-Cl)]YWKTFT-NH2; configuration not given here) |  |  |  | 33.5 |  | 47.1 |  | 58.7 |  |  |  | 62.2 |  | 36.2 |  | 28.9 |  |  |  |  |
| O=C1NC(=O)c2ccc([N+](=O)[O-])c3cccc1c23 |  | 32.3 |  | 37.7 |  | 28.4 |  | 35.5 |  |  |  |  |  |  |  | 32.7 | 6.11 |  |  |  |
| NC(N)=NCCCn1c2c(c3ccccc3c1=O)C(=O)c1ccccc1-2 | 25.7 | 94.6 | 42.7 | > 100 | 18.7 | 34.5 | 55.6 | > 100 |  |  | 2.65 | 18.8 | 18.3 | 45.4 | 11.6 | 29.5 | 11.1 | 2.45 | 38.6 | > 100 |
